Consider 31 molecules from US20260207621A1 (Vividion Therapeutics, Inc., priority 2022, published 2026).

For experiment [1], the system named is Nrf2. The experiment is described as follows: Nrf2 antagonism assay: ARE luciferase reporter in KYSE-70 cells. It counts as cell-based. As to conditions: positive Imax corresponds to Nrf2 antagonism; for Emax: Homo sapiens, KYSE-70, KYSE-70 cells, read-out: KYSE70 Cellular ARE Luciferase Imax (%); for KYSE70 Cellular ARE Luciferase Imax (%): KYSE-70 cells. The method, boiled down: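 KYSE-70 esophageal squamous carcinoma cells carrying Nrf2 W24C (constitutively Nrf2-high) with an ARE-driven luciferase reporter. Loss of luciferase signal reflects Nrf2 antagonism via KEAP1 C151 engagement. IC50 and Imax come from dose-response curves; positive Imax means antagonism.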
Background: Reporter assays use an easily measured gene product as a stand-in for the process of interest.

In experiment [2] the target is T1, KEAP1 C151 (Homo sapiens, UniProt Q14145).
T1 construct: treating 500 μg of cell lysate generated from MDA-MB-468 breast cancer cells with DMSO or compound; endogenous in cells; host or cells: MDA-MB-468 breast cancer cell lysate
The experiment is described as follows: Nrf2 TMT measurement: in vitro TE50 for KEAP1 C151 (IA-DTB competition, targeted TMT mass spectrometry) in MDA-MB-468 cell lysate. In kind it is binding. As to conditions: in vitro target engagement of KEAP1 C151, targeted TMT, read-out: KEAP1_C151 TE50. The gist of the method: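 MDA-MB-468 lysate (500 μg) treated with compound for 1 h at room temperature, then 200 μM IA-DTB for 1 h. Labeled peptides streptavidin-enriched after trypsin digest, TMT-labeled and quantified by targeted MS3 on the KEAP1 C151 peptide. IC50 from dose-response curve fitting.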

T1 sequence (Q14145 whole entry): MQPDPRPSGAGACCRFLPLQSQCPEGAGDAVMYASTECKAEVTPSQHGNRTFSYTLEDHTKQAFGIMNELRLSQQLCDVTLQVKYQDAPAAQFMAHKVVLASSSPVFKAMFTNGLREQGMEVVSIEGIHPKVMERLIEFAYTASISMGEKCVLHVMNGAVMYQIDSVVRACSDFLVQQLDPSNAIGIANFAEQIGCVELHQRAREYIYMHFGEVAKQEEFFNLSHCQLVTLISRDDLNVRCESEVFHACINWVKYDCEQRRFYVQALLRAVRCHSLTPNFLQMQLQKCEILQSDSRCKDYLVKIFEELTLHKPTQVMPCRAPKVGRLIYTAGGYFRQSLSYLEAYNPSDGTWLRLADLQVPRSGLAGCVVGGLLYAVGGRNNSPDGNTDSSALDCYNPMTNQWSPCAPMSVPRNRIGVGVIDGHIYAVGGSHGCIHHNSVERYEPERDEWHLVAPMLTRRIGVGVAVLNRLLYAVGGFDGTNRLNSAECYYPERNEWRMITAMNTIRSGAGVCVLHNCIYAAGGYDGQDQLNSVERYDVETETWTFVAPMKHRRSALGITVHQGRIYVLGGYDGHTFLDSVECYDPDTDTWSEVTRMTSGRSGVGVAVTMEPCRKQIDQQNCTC

Take `C=CC(=O)N1CCOCC12COc1c(-c3ccnc(N)n3)cc(Cl)cc12` (single isomer, unassigned) [Compound 158, 1-(7-(2-aminopyrimidin-4-yl)-5-chloro-2H-spiro[benzofuran-3,3′-morpholino]-4′-yl)prop-2-en-1-one]: the Emax in experiment [1] came out at 71%. The IC50 in experiment [2] amounted to 2720 nM.
As for `C=CC(=O)N1CC2(COC2)C1c1cc(Cl)cc(-c2ncnc(N)n2)c1` (single isomer, unassigned) [Compound 159, 1-(5-(3-(4-amino-1,3,5-triazin-2-yl)-5-chlorophenyl)-2-oxa-6-azaspiro[3,3]heptan-6-yl)prop-2-en-1-one], the Emax in experiment [1] was 63%. In addition, the IC50 in experiment [2] was determined as 320 nM.
For the molecule `C=CC(=O)N1CC2(CC2)OCC1(C)c1cc(Cl)cc(-c2ccnc(N)n2)c1` (single isomer, unassigned) [Compound 161, 1-(6-(3-(2-aminopyrimidin-4-yl)-5-chlorophenyl)-6-methyl-4-oxa-7-azaspiro[2.5]octan-7-yl)prop-2-en-1-one], the Emax in experiment [1] was 83%. For the same molecule, the IC50 in experiment [2] is 870 nM.
The like results for `C=CC(=O)N1CC2(CCCC2)OCC1(C)c1cc(Cl)cc(-c2ccnc(N)n2)c1` (single isomer, unassigned) [Compound 163, 1-(8-(3-(2-aminopyrimidin-4-yl)-5-chlorophenyl)-8-methyl-6-oxa-9-azaspiro[4.5]decan-9-yl)prop-2-en-1-one] were, in that order, 72% and 610 nM.
As for `C=CC(=O)N1CC2(CCCC2)OCC1(C)c1cc(Cl)cc(-c2ncnc(N)n2)c1` (single isomer, unassigned) [Compound 164, 1-(8-(3-(4-amino-1,3,5-triazin-2-yl)-5-chlorophenyl)-8-methyl-6-oxa-9-azaspiro[4.5]decan-9-yl)prop-2-en-1-one], the Emax in experiment [1] came to 85%. Moreover, the IC50 in experiment [2] was 440 nM.
For `C=CC(=O)N1CC2(CC2)OCC1(C)c1cc(Cl)cc(-c2ncc(F)cn2)c1` (single isomer, unassigned) [Compound 165, 1-(6-(3-chloro-5-(5-fluoropyrimidin-2-yl)phenyl)-6-methyl-4-oxa-7-azaspiro[2.5]octan-7-yl)prop-2-en-1-one], the Emax in experiment [1] turned out to be 53%. Further, in experiment [2], the IC50 came to 330 nM.
The like results for `C=CC(=O)N1CC2(CCCC2)OCC1(C)c1cc(Cl)cc(-c2ncc(F)cn2)c1` (single isomer, unassigned) [Compound 166, 1-(8-(3-chloro-5-(5-fluoropyrimidin-2-yl)phenyl)-8-methyl-6-oxa-9-azaspiro[4.5]decan-9-yl)prop-2-en-1-one] were, in that order, 50% and 530 nM.
Turning to `C=CC(=O)N1CC2(CC2)OCC1(C)c1cc(Cl)cc(-c2cc(N)ncn2)c1` (single isomer, unassigned) [Compound 167, 1-(6-(3-(6-aminopyrimidin-4-yl)-5-chlorophenyl)-6-methyl-4-oxa-7-azaspiro[2.5]octan-7-yl)prop-2-en-1-one], the Emax in experiment [1] was 87%. Besides, in experiment [2], the IC50 was found to be 2890 nM.
Consider `C=CC(=O)N1CC2(COC2)C1c1cc(Cl)cc(-c2ccnc(N)n2)c1` (single isomer, unassigned) [Compound 168], for which the Emax in experiment [1] turned out to be 74%. Moreover, the IC50 in experiment [2] turned out to be 120 nM.
Regarding `C=CC(=O)N1[C@H](C(=O)N(C)C)COC[C@H]1c1cc(Cl)nc(-c2cc(N)ncn2)c1` (single isomer, unassigned) [Compound 169], the Emax in experiment [1] was found to be 82%. For the same molecule, the IC50 in experiment [2] is 70 nM.
In the case of `C=CC(=O)N1CC2(CCCC2)OCC1(C)c1cc(Cl)cc(-c2cc(N)ncn2)c1` (single isomer, unassigned) [Compound 170, 1-(8-(3-(6-aminopyrimidin-4-y1)-5-chlorophenyl)-8-methyl-6-oxa-9-azaspiro[4.5]decan-9-yl)prop-2-en-1-one], in experiment [1], the Emax was 81%. In addition, in experiment [2], the IC50 worked out at 1670 nM.
On to `C=CC(=O)N1CC2(CCCC2)OCC1(C)c1cc(Cl)cc(-c2nccc(N)n2)c1` (single isomer, unassigned) [Compound 171, 1-(8-(3-(4-aminopyrimidin-2-yl)-5-chlorophenyl)-8-methyl-6-oxa-9-azaspiro[4.5]decan-9-yl)prop-2-en-1-one], for which the Emax in experiment [1] was determined as 72%. Moreover, the IC50 in experiment [2] is 350 nM.
Regarding `C=CC(=O)N1[C@H](C(N)=O)COC[C@H]1c1cc(Cl)nc(-c2cc(N)ncn2)c1` (single isomer, unassigned) [Compound 172], the Emax in experiment [1] amounted to 71%. The IC50 in experiment [2] was 20 nM.
As to `C=CC(=O)N1[C@H](C(=O)NC)COC[C@H]1c1cc(Cl)nc(-c2cc(N)ncn2)c1` (single isomer, unassigned) [Compound 173], the Emax in experiment [1] amounted to 86%. For the same molecule, in experiment [2], the IC50 was < 6.4 nM.
Consider `C=CC(=O)N1CC2(CC2)OCC1c1cc(Cl)nc(-c2cc(N)ncn2)c1` (single isomer, unassigned) [Compound 174, 1-(6-(2-(6-aminopyrimidin-4-yl)-6-chloropyridin-4-yl)-4-oxa-7-azaspiro[2.5]octan-7-yl)prop-2-en-1-one], for which the “KYSE70 Cellular ARE Luciferase Imax (%)” value in experiment [1] worked out at 51%. Besides, the IC50 in experiment [2] worked out at 76 nM.
Take `C=CC(=O)N1CC2(CC2)OCC1c1cc(Cl)nc(-c2cc(N)ncn2)c1` (single isomer, unassigned) [Compound 175, 1-(6-(2-(6-aminopyrimidin-4-yl)-6-chloropyridin-4-yl)-4-oxa-7-azaspiro[2.5]octan-7-yl)prop-2-en-1-one]: in experiment [1], the “KYSE70 Cellular ARE Luciferase Imax (%)” value is 92%. Further, the IC50 in experiment [2] stood at 32 nM.
Consider `C=CC(=O)N1CCOC[C@H]1c1cc(Cl)cc(-c2nc(N)[nH]c(=O)n2)c1` (single isomer, unassigned) [Compound 177], for which the Emax in experiment [1] came to 87%. In addition, the IC50 in experiment [2] came out at 150 nM.
For `C=CC(=O)N1CCOC[C@H]1c1cc(Cl)cc(-c2nc(C)nc(N)n2)c1` (single isomer, unassigned) [Compound 178], the Emax in experiment [1] is 93%. Also, the IC50 in experiment [2] was found to be 30 nM.
Take `C=CC(=O)N1C[C@@H](C)OC[C@H]1c1cc(Cl)cc(-c2ccc(F)c(C(N)=O)c2)c1` (single isomer, unassigned) [Compound 179]: the Emax in experiment [1] turned out to be 92%. For the same molecule, in experiment [2], the IC50 came out at 190 nM.
Turning to `C=CC(=O)N1[C@H](c2cc(Cl)nc(-c3ccc(F)c(C(N)=O)c3)c2)COC[C@H]1C(F)F` (single isomer, unassigned) [Compound 180], the Emax in experiment [1] came out at 90%. The IC50 in experiment [2] was 7.3 nM.
Turning to `C=CC(=O)N1C[C@H](C)OC[C@H]1c1cc(Cl)cc(-c2ccc(F)c(C(N)=O)c2)c1` (single isomer, unassigned) [Compound 182], in experiment [1], the Emax was 89%. Further, the IC50 in experiment [2] came out at 16 nM.
The like results for `C=CC(=O)N1CCN(C(C)=O)C[C@H]1c1cc(Cl)cc(-c2nccc(N)n2)c1` (single isomer, unassigned) [Compound 183] were, in that order, 87% and 27 nM.
With `C=CC(=O)N1CCN(C(C)=O)C[C@H]1c1cc(Cl)cc(-c2cc(N)ncn2)c1` (single isomer, unassigned) [Compound 187], in experiment [1], the Emax came out at 71%. In addition, in experiment [2], the IC50 worked out at 120 nM.
With `C=CC(=O)N1CCN(C(C)=O)C[C@H]1c1cc(Cl)cc(-c2ncc(N)cn2)c1` (single isomer, unassigned) [Compound 188], in experiment [1], the Emax was 86%. Also, in experiment [2], the IC50 turned out to be 18 nM.
On to `C=CC(=O)N1CC2(CC2)OCC1c1cc(Cl)nc(-c2ccn3ccnc3c2)c1` (single isomer, unassigned) [Compound 190, 1-(6-(2-chloro-6-(imidazo[1,2-a]pyridin-7-yl)pyridin-4-yl)-4-oxa-7-azaspiro[2,5]octan-7-yl)prop-2-en-1-one], for which the Emax in experiment [1] was found to be 75%. For the same molecule, in experiment [2], the IC50 was 6.6 nM.
The like results for `C=CC(=O)N1CCOC[C@H]1c1cc(Cl)cc(-c2nc(N)nc(N)n2)c1` (single isomer, unassigned) [Compound 191] were, in that order, 93% and 12 nM.
As for `C=CC(=O)N1CC2(CC2)OCC12COc1c(-c3ccnc(N)n3)cc(Cl)cc12` (single isomer, unassigned) [Compound 192], the Emax in experiment [1] was 64%. For the same molecule, the IC50 in experiment [2] worked out at 6710 nM.
The like results for `C=CC(=O)N1[C@H](c2cc(Cl)nc(-c3ccnc(N)n3)c2)COC[C@H]1C(F)F` (single isomer, unassigned) [Compound 203] were, in that order, 87% and 11 nM.
Taken in the same sequence, the figures for `C=CC(=O)N1[C@H](CC#N)COC[C@H]1c1cc(Cl)cc(-c2cc(N)ncn2)c1` (single isomer, unassigned) [Compound 204] were 86% and 11 nM.
As for `C=CC(=O)N1CCS(=O)(=O)CC1c1cc(Cl)cc(-c2ncnc(N)n2)c1` (single isomer, unassigned) [Compound 205, 1-(3-(3-(4-amino-1,3,5-triazin-2-yl)-5-chlorophenyl)-1,1-dioxidothiomorpholino)prop-2-en-1-one], the “KYSE70 Cellular ARE Luciferase Imax (%)” value in experiment [1] is reported as 92%. For the same molecule, the IC50 in experiment [2] stood at 34 nM.
As to `C=CC(=O)N1CCS(=O)(=O)CC1c1cc(Cl)cc(-c2ncnc(N)n2)c1` (single isomer, unassigned) [Compound 206, 1-(3-(3-(4-amino-1,3,5-triazin-2-yl)-5-chlorophenyl)-1,1-dioxidothiomorpholino)prop-2-en-1-one], in experiment [1], the “KYSE70 Cellular ARE Luciferase Imax (%)” value is 55%. Moreover, the IC50 in experiment [2] worked out at 520 nM.
